From article PMC8450354, “Codon Optimization of Insect Odorant Receptor Genes May Increase Their Stable Expression for Functional Characterization in HEK293 Cells” (Frontiers in Cellular Neuroscience, 2021) come the findings set out here.

What is called EC50 is the midpoint of the concentration-response curve.

What all share (assay): calcium fluorescence (Fluo-4AM) assay, inducible stable HEK293 cells
Holding throughout (assay type): cell-based

One assay has as its target T1, ItypOR25 (Ips typographus, UniProt A0A8F3ERC7).
T1 construct: full-length, N-terminal V5 tag, codon-optimized gene; with ItypOrco
T1 sequence (A0A8F3ERC7 1-394): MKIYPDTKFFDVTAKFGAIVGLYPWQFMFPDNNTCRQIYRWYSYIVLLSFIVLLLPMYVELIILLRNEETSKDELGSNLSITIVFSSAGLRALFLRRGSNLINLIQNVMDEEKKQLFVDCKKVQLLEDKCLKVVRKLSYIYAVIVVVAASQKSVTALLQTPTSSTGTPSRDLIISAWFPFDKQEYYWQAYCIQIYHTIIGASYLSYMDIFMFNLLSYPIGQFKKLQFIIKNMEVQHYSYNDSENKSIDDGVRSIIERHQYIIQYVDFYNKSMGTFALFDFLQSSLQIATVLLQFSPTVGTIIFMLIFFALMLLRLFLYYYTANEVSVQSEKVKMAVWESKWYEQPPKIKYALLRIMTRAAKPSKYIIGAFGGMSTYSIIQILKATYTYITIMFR
T1 sequence (A0A7L8XYY7 1-480 partner): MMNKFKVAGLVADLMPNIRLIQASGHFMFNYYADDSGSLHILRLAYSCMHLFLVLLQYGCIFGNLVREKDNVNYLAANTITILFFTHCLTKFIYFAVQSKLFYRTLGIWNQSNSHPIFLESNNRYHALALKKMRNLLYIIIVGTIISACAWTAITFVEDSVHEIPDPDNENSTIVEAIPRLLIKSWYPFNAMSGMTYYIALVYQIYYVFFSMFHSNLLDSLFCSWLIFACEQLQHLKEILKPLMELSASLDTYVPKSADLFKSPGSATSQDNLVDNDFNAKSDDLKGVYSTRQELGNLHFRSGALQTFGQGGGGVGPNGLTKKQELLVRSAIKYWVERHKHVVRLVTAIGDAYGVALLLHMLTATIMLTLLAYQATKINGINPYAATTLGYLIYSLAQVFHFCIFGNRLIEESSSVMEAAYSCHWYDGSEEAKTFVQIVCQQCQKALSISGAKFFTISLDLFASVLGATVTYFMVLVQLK

The target in a further assay is T2, ItypOR49 (Ips typographus, UniProt A0A7L8XYT4).
T2 construct: full-length, N-terminal V5 tag, codon-optimized gene; with ItypOrco

The next assay addresses T3, ItypOrco (Ips typographus, UniProt A0A7L8XYY7).
T3 construct: full-length, N-terminal Myc tag, codon-optimized gene, expressed without an OR

T2 sequence (A0A7L8XYT4 entry or part of it, one chain of several): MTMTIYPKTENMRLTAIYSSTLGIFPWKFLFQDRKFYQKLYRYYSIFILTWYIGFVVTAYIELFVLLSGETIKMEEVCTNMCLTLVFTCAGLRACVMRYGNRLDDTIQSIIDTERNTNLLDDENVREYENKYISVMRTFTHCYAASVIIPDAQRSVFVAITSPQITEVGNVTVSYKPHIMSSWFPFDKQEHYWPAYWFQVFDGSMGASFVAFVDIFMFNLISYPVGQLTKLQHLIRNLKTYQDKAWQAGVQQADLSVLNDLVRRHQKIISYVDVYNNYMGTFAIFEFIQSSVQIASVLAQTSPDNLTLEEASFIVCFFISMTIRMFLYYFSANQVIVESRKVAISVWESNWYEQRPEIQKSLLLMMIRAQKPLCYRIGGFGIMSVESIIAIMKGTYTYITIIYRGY

For `CC1=CC[C@@H]2[C@H](C1)C2(C)C` [(+)-3-carene], the EC50 on ItypOR25 was about 24.5 µM.

Take `C=CC(=C)C[C@@H](O)C=C(C)C` [(R)-(−)-ipsdienol]: the EC50 at ItypOR49 stood at 7.1 µM. As for `CCc1ccc(NC(=O)CSc2nnc(-c3cccnc3)n2CC)cc1` [VUAA1], the EC50 at ItypOrco was determined as 21.1 µM.
